Entries after “also recorded” stand apart in the source; their conditions may differ.
Legend:
[1] = tested on: HA receptor (hemagglutinin); conditions: monovalent binding; cited from earlier work
[2] = tested on: hemagglutinin H5 (HA1 aa 17–338, A/chicken/Jilin/9/2004 (H5N1)); type: binding, influenza A virus (H5N1); conditions: pH 7.4

Compound | association constant, single SA molecule to a single HA receptor [1] | SPR binding signal to immobilised H5 (in words) [2]
CC(=O)N[C@H]1[C@H]([C@H](O)[C@H](O)CO)OC(O)(C(=O)O)C[C@@H]1O (some centres unmarked) [SA, sialic acid] | 10^3 M^-1 | –
C16-GSWGEW [negative control] | – | no binding affinity; also recorded: no quantitative measurable signal changes
